Biological target: human TLR7 (Homo sapiens (Human), UniProt Q9NYK1)
Assay: Reporter Gene Assay (HEK293 stably transfected with human TLR7 and NF-kB-driven luciferase reporter)
Assay type: cell-based
Details: HEK293 cells stably transfected with human TLR7 and pNifty-Luciferase; 7 hours incubation; EC50 relative to the activity of resiquimod set to 100%
Description: As a control assay, normal Hek293 transfected with pNifty-Luc were used. […] Bright-Glo™ Luciferase assay buffer and substrate were supplied by Promega #E263B and #E264B (assay substrate and buffer respectively). 384 well clear-bottom plates were supplied by Greiner bio-one (#789163-G) and were custom bar-coded plates.
Cells were plated at 25,000 cells/well in 384-well plates in a final volume of 50 μl of media. Cells were allowed to adhere to the plates after overnight (18 hours) culture at 37° C. and 5% CO2. Serially diluted experimental and positive control compounds were then dispensed to each well and incubated for 7 hours at 37° C. and 5% CO2. Cells stimulated with DMSO alone also serve as negative controls. After the incubation, 30 μl of the pre-mix assay buffer and substrate buffer were added to each well according to manufacturer's instructions. The luminescence signal was read on a CLIPR machine with an integration time of 20 seconds per plate.

Sequence of human TLR7 (Q9NYK1 27-1049): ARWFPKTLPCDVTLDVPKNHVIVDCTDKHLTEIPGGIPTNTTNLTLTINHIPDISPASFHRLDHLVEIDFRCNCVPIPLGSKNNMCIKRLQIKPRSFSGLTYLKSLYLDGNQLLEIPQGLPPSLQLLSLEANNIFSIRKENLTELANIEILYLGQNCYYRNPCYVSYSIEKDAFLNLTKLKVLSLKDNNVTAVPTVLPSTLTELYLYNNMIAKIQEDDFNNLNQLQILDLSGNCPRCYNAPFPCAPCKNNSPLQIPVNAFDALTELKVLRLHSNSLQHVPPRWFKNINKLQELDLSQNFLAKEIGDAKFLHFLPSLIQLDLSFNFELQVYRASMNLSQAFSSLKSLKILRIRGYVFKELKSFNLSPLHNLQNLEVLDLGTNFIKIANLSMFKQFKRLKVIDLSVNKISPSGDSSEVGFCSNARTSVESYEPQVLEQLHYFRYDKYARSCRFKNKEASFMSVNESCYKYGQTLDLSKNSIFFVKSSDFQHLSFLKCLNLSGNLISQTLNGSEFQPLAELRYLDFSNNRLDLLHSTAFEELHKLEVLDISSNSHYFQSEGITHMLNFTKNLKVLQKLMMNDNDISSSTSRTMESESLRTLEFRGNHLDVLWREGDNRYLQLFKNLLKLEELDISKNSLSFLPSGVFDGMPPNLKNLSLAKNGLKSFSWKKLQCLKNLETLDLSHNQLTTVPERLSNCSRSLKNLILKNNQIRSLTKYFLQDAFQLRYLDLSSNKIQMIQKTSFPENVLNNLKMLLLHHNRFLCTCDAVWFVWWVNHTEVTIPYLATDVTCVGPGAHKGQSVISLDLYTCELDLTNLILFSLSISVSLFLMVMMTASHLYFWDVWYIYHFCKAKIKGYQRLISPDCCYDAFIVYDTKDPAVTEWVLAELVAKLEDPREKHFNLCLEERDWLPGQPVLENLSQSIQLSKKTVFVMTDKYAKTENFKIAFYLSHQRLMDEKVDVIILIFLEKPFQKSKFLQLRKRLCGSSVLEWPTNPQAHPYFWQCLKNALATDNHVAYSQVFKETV

Row | SMILES | EC50 [µM]
1 | CCCC[C@@H](CO)Nc1nc(N)nc2ccn(Cc3ccc(CN4CCNCC4)cc3OC)c12 [Example 33, (S)-2-((2-amino-5-(2-methoxy-4-(piperazin-1-ylmethyl)benzyl)-5H-pyrrolo[3,2-d]pyrimidin-4-yl)amino)hexan-1-ol] | 0.007
2 | CCCCCNc1nc(N)nc2ccn(Cc3cc(N)ccc3OC)c12 [Example 34, 5-(5-amino-2-methoxybenzyl)-N4-pentyl-5H-pyrrolo[3,2-d]pyrimidine-2,4-diamine] | 0.001

From US10407431B2, “Compounds and compositions as toll-like receptor 7 agonists” (NOVARTIS AG, priority 2014, dated 2019)
